Experimental data reported in patent publication US20240182444A1, “ANTI-VIRAL COMPOUNDS” (Aligos Therapeutics, Inc., priority 2022, published 2024).

Legend:
[1] = target: T1, human cathepsin L (Homo sapiens, UniProt P07711); assay: Cathepsin L assay; format: biochemical; settings: 10 pM human cathepsin L, Z-FR-AMC 2 μM
T1 construct: purchased R&D Systems
Experimental: For the cathepsin L assay, 10 pM of human cathepsin L (R&D Systems; Minneapolis, MN) was preincubated for 30 mins with test compounds. Reactions were initiated by the addition of a peptide substrate Z-FR-AMC (final concentration 2 μM, Anaspec; Fremont, CA). Fluorescence was measured at 2-minute intervals for 30 mins using a 355/460 excitation/emission filter module on an Envision plate reader (Perkin Elmer; Waltham, MA). The IC50 values were calculated for each assay by fitting the curves using a four-parameter equation in GraphPad Prism.
Table 4 indicates related IC50 values for the tested compounds where ‘A’ indicates an IC50≥10000 nM, ‘B’ indicates an IC50 of ≥1000 nM and <10000 nM, ‘C’ indicates an IC50; ≥100 nM and <1000 nM, ‘D’ indicates an IC50<100 nM.

[2] = system: human beta-coronavirus OC43; assay: OC43 coronavirus antiviral assay in HeLa cells; format: cell-based; settings: Betacoronavirus 1, 144 h, OC43, 6 days at 33° C., cell-titer-glo
Experimental: (§1) The human beta-coronavirus OC43 was purchased from ATCC (Manassas, VA) and propagated using HCT-8 human colorectal epithelial cells (ATCC). HeLa human cervical epithelial cells (ATCC) were used as susceptible host cell lines and were cultured using EMEM media, supplemented with 10% fetal bovine serum (FBS), 1% (v/v) penicillin/streptomycin (P/S), 1% (v/v) HEPES and 1% (v/v) cellgro Glutagro™ supplement (all Corning, Manassas, VA) at 37° C. For the OC43 antiviral assay, 1.5×10^4 HeLa cells per well were plated in 100 μL complete media in white 96-well plates with clear bottoms at 37° C. for up to 24 h to facilitate attachment and allow cells to recover from seeding stresses. Next day, the cell culture medium was removed. Serially diluted compounds in 100 μL assay media (EMEM, 2% FBS, 1% P/S, 1% cellgro Glutagro™ supplement, 1% HEPES) were added to the cells and incubated for 4 h at 37° C. in a humidified 5% CO2 incubator. 100 μL of OC43 virus stock was diluted to a concentration known to produce optimal cytopathic effect, inducing 80-90% reduction in cell viability. 96-well plates were incubated for 6 days at 33° C.; each plate contains uninfected control wells as well as virus-infected wells that were not treated with compound. Cytotoxicity plates without the addition of OC43 virus were carried out in parallel. At the end of the incubation period, 100 μL cell culture supernatant was replaced with 100 μL cell-titer-glo reagent (Promega, Madison, WI) and incubated for at least 10 min at rt prior to measuring luminescence. Luminescence was measured on a Perkin Elmer (Waltham, MA) Envision plate reader. Antiviral % inhibition was calculated as follows: [(Compound treated cells infected sample)−(no compound infected control)]/[(Uninfected control)−(no compound infected control)]*100; Using GraphPad (San Diego, CA) prism software version 8.3.1, the antiviral dose-response plot was generated as a sigmoidal fit, log(inhibitor) vs response-variable slope (four parameters) model and the EC50 was calculated which is the predicted compound concentration corresponding to a 50% inhibition of the viral cytopathic effect.
(§2) Table 2 indicates related EC50 and CC50 values for the tested compounds ‘A’ indicates an EC50<100 nM, ‘B’ indicates an EC50 of ≥100 nM and <1000 nM, ‘C’ indicates an EC50≥1000 nM and <10000 nM and ‘D’ indicates an EC50≥10000 nM and <100000 nM. For CC50, the values are reported in micromolar (M), ‘A’ indicates a CC50≥10000 nM and ‘B’ indicates a CC50≥1 μM and <10 μM.

[3] = target: T2, SARS-Cov-2 3CLpro (Severe acute respiratory syndrome coronavirus 2, UniProt P0DTD1); assay: SARS-Cov-2 3CLpro protease assay (SAMDI-MS); format: biochemical; settings: 30 mins preincubation, duplex peptide substrates; read-out: SARS-Cov-2 (3CLpro IC50)
T2 construct: 3CLpro was added using a Multidrop Combi

[4] = in vitro; settings: human
[5] = Cytotoxicity in HeLa cells without OC43 virus; format: cell-based; settings: human, HeLa cells (uninfected), in parallel
Experimental: as §1, §2

[6] = system: SARS-CoV-2 B.1.1.7 lineage; assay: microbe, parasite or virus in culture; format: cell-based; settings: Severe acute respiratory syndrome coronavirus 2, 96 h; read-out: A549-dual_ACE2_TMPRSS2 (EC50)
[7] = system: SARS-CoV-2; settings: VeroE6, A549-ACE2 and/or HeLa-ACE2; cited from earlier work
[8] = system: SARS-CoV-2; settings: A549-ACE2 expressing TMPRSS2; cited from earlier work
[9] = target: 3Clpro (Severe acute respiratory syndrome coronavirus 2, UniProt P0DTD1); settings: cited from earlier work

T1 sequence (P07711 114-333): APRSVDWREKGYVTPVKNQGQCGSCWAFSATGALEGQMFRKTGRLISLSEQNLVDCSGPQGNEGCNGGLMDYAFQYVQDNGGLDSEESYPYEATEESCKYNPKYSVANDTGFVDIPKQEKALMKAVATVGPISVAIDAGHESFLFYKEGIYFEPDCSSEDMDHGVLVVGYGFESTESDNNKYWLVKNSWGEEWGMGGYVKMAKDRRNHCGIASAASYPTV

| SMILES | IC50 [1] | EC50 [2] | IC50 [3] | CC50 [4] | CC50 at 6 days [5] | EC50 [6] | inhibition of SARS-CoV-2 [7] | antiviral effect when TMPRSS2 was expressed [8] | inhibitory effect on the 3Clpro [9] |
| --- | --- | --- | --- | --- | --- | --- | --- | --- | --- |
| CC(C)(C)[C@H](NC(=O)C(F)(F)F)C(=O)N1C[C@H]2[C@@H]([C@H]1C(=O)NC(C#N)c1cncc3ccccc13)[C@H]1C=C[C@@H]2C1 (stereo partly drawn) [Compound 1, (1S,3aR,4S,7R,7aS)—N-(cyano(isoquinolin-4-yl)methyl)-2-((S)-3,3-dimethyl-2-(2,2,2-trifluoroacetamido)butanoyl)-2,3,3a,4,7,7a-hexahydro-1H-4,7-methanoisoindole-1-carboxamide] | ≥ 10 µM | < 100 nM | < 20 nM | > 1000 nM | ≥ 10 µM | < 100 nM | – | – | – |
| CN1CCN(C(=O)N[C@@H](Cc2ccccc2)C(=O)N[C@H](/C=C/S(=O)(=O)c2ccccc2)CCc2ccccc2)CC1 [Compound K117777] | – | – | – | – | – | – | potent inhibition | abolished | lacks an inhibitory effect |
| CC(C)(C)[C@H](NC(=O)C(F)(F)F)C(=O)N1C[C@H]2[C@@H]([C@H]1C(=O)NC(C#N)c1cnc3ccccn13)[C@H]1C=C[C@@H]2C1 (stereo partly drawn) [Compound 2, (1S,3aR,4S,7R,7aS)—N-(cyano(imidazo[1,2-a]pyridin-3-yl)methyl)-2-((S)-3,3-dimethyl-2-(2,2,2-trifluoroacetamido)butanoyl)-2,3,3a,4,7,7a-hexahydro-1H-4,7-methanoisoindole-1-carboxamide] | ≥ 10 µM | 100 to 1000 nM | < 20 nM | > 1000 nM | ≥ 10 µM | 100 to 1000 nM | – | – | – |
| CC(C)(C)[C@H](NC(=O)C(F)(F)F)C(=O)N1C[C@H]2[C@@H]([C@H]1C(=O)NC(C#N)c1cccnc1)[C@H]1C=C[C@@H]2C1 (stereo partly drawn) [Compound 3, (1R,2S,3S,6R,7S)—N-[cyano(pyridin-3-yl)methyl]-4-[(2S)-3,3-dimethyl-2-(2,2,2-trifluoroacetamido)butanoyl]-4-azatricyclo[5.2.1.0^{2,6}]dec-8-ene-3-carboxamide] | ≥ 10 µM | 100 to 1000 nM | < 20 nM | > 1000 nM | ≥ 10 µM | 100 to 1000 nM | – | – | – |
| COc1cccc2cncc([C@@H](C#N)NC(=O)[C@@H]3[C@@H]4[C@H](CN3C(=O)[C@@H](NC(=O)C(F)(F)F)C(C)(C)C)[C@H]3C[C@@H]4[C@H](F)C3)c12 [Compound 28] | – | < 100 nM | < 20 nM | > 1000 nM | ≥ 10 µM | < 100 nM | – | – | – |
| CC(C)(C)[C@H](NC(=O)C(F)(F)F)C(=O)N1C[C@@H]2[C@H]3C[C@@H]([C@@H]2[C@H]1C(=O)NC(C#N)c1cncc(Cl)c1Cl)[C@H](F)C3 (stereo partly drawn) [Compound 10, (1S,2R,3S,6R,7S,9R)—N-[cyano(4,5-dichloropyridin-3-yl)methyl]-4-[(2S)-3,3-dimethyl-2-(2,2,2-trifluoroacetamido)butanoyl]-9-fluoro-4-azatricyclo[5.2.1.0^{2,6}]decane-3-carboxamide] | – | 100 to 1000 nM | < 20 nM | > 1000 nM | ≥ 10 µM | ≥ 1000 nM | – | – | – |
| CC(C)(C)[C@H](NC(=O)C(F)(F)F)C(=O)N1C[C@@H]2[C@H]3C[C@@H]([C@@H]2[C@H]1C(=O)NC(C#N)c1cnn2ccccc12)[C@H](F)C3 (some centres unmarked) [Compound 25] | – | 100 to 1000 nM | < 20 nM | > 1000 nM | ≥ 10 µM | 100 to 1000 nM | – | – | – |
| CC(C)(C)[C@H](NC(=O)C(F)(F)F)C(=O)N1C[C@@H]2[C@H]3C[C@@H]([C@@H]2[C@H]1C(=O)NC(C#N)c1cnn2cc(F)ccc12)[C@H](F)C3 (some centres unmarked) [Compound 20] | – | 100 to 1000 nM | < 20 nM | > 1000 nM | ≥ 10 µM | < 100 nM | – | – | – |
